Assays:
Experiment in all cases: area under the viability dose-response curve (AUC) (AUC (arbitrary units, max 500 = no viability loss)); higher = less sensitive (higher viability)
Details in all cases: exposure time: 120 h; concentration range: 0.1 nM - 10 µM, 6 doses
[1] = system: 8F1 (fetal-I hepatoblastoma organoid with intermediate liver markers)
Method: (§1)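 Patient-derived hepatoblastoma tumor organoids (about 50 organoids per well, 384-well plates, medium with 5% BME) were treated with the PMC pediatric cancer drug library. Each drug was tested in duplicate at 6 concentrations (0.1 nM to 10 µM, 10-fold steps).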

[2] = system: 17E (embryonal-type hepatoblastoma organoid)
Method: as §1

[3] = system: 13E (embryonal-type hepatoblastoma organoid)
Method: as §1

[4] = system: 22E (embryonal-type hepatoblastoma organoid)
Method: as §1

[5] = system: 3E (embryonal-type hepatoblastoma organoid)
Method: as §1

[6] = system: 10F2 (fetal-II hepatoblastoma organoid with high liver markers)
Method: as §1

[7] = system: 135F2 (fetal-II hepatoblastoma organoid with high liver markers)
Method: as §1

[8] = system: 13F2 (fetal-II hepatoblastoma organoid with high liver markers)
Method: as §1

[9] = system: 27F1 (fetal-I hepatoblastoma organoid with intermediate liver markers)
Method: as §1

[10] = system: 17F1 (fetal-I hepatoblastoma organoid with intermediate liver markers)
Method: as §1

[11] = system: 96F1 (fetal-I hepatoblastoma organoid with intermediate liver markers)
Method: as §1

| Structure (SMILES) | area under the viability dose-response curve [1] | area under the viability dose-response curve [2] | area under the viability dose-response curve [3] | area under the viability dose-response curve [4] | area under the viability dose-response curve [5] | area under the viability dose-response curve [6] | area under the viability dose-response curve [7] | area under the viability dose-response curve [8] | area under the viability dose-response curve [9] | area under the viability dose-response curve [10] | area under the viability dose-response curve [11] |
| --- | --- | --- | --- | --- | --- | --- | --- | --- | --- | --- | --- |
| C[C@]12CCCN1CC1=NNC(=O)c3cc(F)cc4[nH]c2c1c34 [Pamiparib] | 479 | > 500 | 481 | 473 | 459 | 439 | 478 | 443 | 487 | > 500 | 494 |
| CS(=O)(=O)N1CCN(Cc2cc3nc(-c4cccc5[nH]ncc45)nc(N4CCOCC4)c3s2)CC1 [Pictilisib] | 482 | 350 | 413 | 404 | 380 | 391 | 411 | 365 | 376 | 493 | 422 |
| COc1ccc(-c2nc(N3CCOCC3)c3sc(CN(C)c4ncc(C(=O)NO)cn4)cc3n2)cn1 [Fimepinostat] | 296 | 158 | 236 | 237 | 161 | 169 | 166 | 167 | 255 | 255 | 235 |
| O=c1cc(-c2cccc3c2Sc2ccccc2S3)oc(N2CCOCC2)c1 | > 500 | 498 | 498 | 497 | 490 | 455 | > 500 | 500 | > 500 | > 500 | > 500 |
| Cc1[nH]c2ccccc2c1CCNCc1ccc(/C=C/C(=O)NO)cc1 [Panobinostat] | 325 | 218 | 294 | 319 | 210 | 166 | 248 | 220 | 296 | 271 | 290 |
| COc1cc(Nc2c(C#N)cnc3cc(OCCCN4CCN(C)CC4)c(OC)cc23)c(Cl)cc1Cl [Bosutinib] | 450 | 429 | 447 | 471 | 435 | 429 | 459 | 397 | 422 | 469 | 433 |
| C#Cc1cccc(Nc2ncnc3cc4c(cc23)OCCOCCOCCO4)c1 [Icotinib] | 495 | 487 | 497 | > 500 | 474 | 376 | 474 | 406 | 442 | 465 | 464 |
| CCCS(=O)(=O)Nc1ccc(F)c(C(=O)c2c[nH]c3ncc(-c4ccc(Cl)cc4)cc23)c1F [Vemurafenib] | 495 | 496 | 475 | 447 | 490 | 395 | 498 | 440 | 499 | 499 | 490 |
| COc1cc([C@@H]2c3cc4c(cc3[C@@H](O[C@@H]3O[C@@H]5CO[C@@H](C)O[C@H]5[C@H](O)[C@H]3O)[C@H]3COC(=O)[C@H]23)OCO4)cc(OC)c1O [Etoposide] | 477 | 349 | 380 | 446 | 378 | 388 | 389 | 359 | 446 | 438 | 383 |
| CNCc1ccc(-c2[nH]c3cc(F)cc4c3c2CCNC4=O)cc1 [Rucaparib] | 476 | 489 | 484 | 475 | 490 | 446 | 452 | 458 | > 500 | 489 | > 500 |
| CN[C@@H](C)C(=O)N[C@H]1CN(C(=O)CC(C)C)CC[C@H]2CC[C@@H](C(=O)NC(c3ccccc3)c3ccccc3)N2C1=O [Xevinapant] | 496 | 454 | 484 | 301 | 351 | 445 | > 500 | 498 | > 500 | 489 | > 500 |
| Cc1c(-c2c(-c3ccc(F)o3)sc3ncnc(O[C@H](Cc4ccccc4OCc4ccnn4CC(F)(F)F)C(=O)O)c23)ccc(OCCN2CCN(C)CC2)c1Cl | 485 | 370 | 367 | 388 | 234 | 185 | 351 | 239 | 428 | > 500 | > 500 |
| CO[C@H]1C[C@@H]2CC[C@@H](C)[C@@](O)(O2)C(=O)C(=O)N2CCCC[C@H]2C(=O)O[C@H]([C@H](C)C[C@@H]2CC[C@@H](OC(=O)C(C)(CO)CO)[C@H](OC)C2)CC(=O)[C@H](C)/C=C(\C)[C@@H](O)[C@@H](OC)C(=O)[C@H](C)C[C@H](C)/C=C/C=C/C=C/1C [Temsirolimus] | 493 | 341 | 373 | 406 | 280 | 339 | 469 | 342 | 475 | 471 | 496 |
| CN(Cc1cnc2nc(N)nc(N)c2n1)c1ccc(C(=O)N[C@@H](CCC(=O)O)C(=O)O)cc1 [Methotrexate] | 382 | 451 | 381 | 452 | 483 | 429 | 294 | 274 | 366 | 334 | 345 |
| O=c1nc(N2CCOCC2)oc2c(-c3cccc4c3sc3ccccc34)cccc12 [LTURM34] | 489 | 487 | 473 | 433 | 486 | 393 | 467 | 484 | > 500 | 490 | 497 |
| COc1cc2nccc(Oc3ccc(NC(=O)C4(C(=O)Nc5ccc(F)cc5)CC4)cc3)c2cc1OC [Cabozantinib] | 489 | 439 | 478 | 445 | 457 | 488 | 491 | 442 | > 500 | > 500 | 475 |
| C=CC(=O)N1CCC[C@@H](n2nc(-c3ccc(Oc4ccccc4)cc3)c3c(N)ncnc32)C1 [Ibrutinib] | 480 | 439 | 476 | 443 | > 500 | 386 | 455 | 358 | 418 | 488 | 438 |
| CC(=O)c1c(C)c2cnc(Nc3ccc(N4CCNCC4)cn3)nc2n(C2CCCC2)c1=O [Palbociclib] | 499 | 373 | 467 | 460 | 382 | 398 | 431 | 337 | 470 | > 500 | 460 |
| CNc1nc(-c2nc3ccc(N4CCN(C)CC4)cc3n2Cc2ccccc2)cn2c(C)nnc12 | > 500 | 433 | 411 | 415 | 321 | 328 | 309 | 260 | 479 | 460 | 492 |
| CC(C)(C)c1nc(-c2cccc(NS(=O)(=O)c3c(F)cccc3F)c2F)c(-c2ccnc(N)n2)s1 [Dabrafenib] | > 500 | 494 | 497 | 486 | 491 | 422 | 471 | 411 | 497 | > 500 | 456 |
| Oc1nc(-c2ccc(C(F)(F)F)cc2)nc2c1CSCC2 [XAV-939] | 490 | > 500 | 486 | 491 | 496 | 456 | 486 | 477 | > 500 | > 500 | > 500 |
| O=C1NC(=O)[C@@H](c2cn3c4c(cccc24)CCC3)[C@@H]1c1c[nH]c2ccccc12 [Tivantinib] | 455 | 345 | 358 | 404 | 349 | 320 | 367 | 350 | 375 | 415 | 377 |
| Cc1cccc(-c2[nH]c(CNc3ccccc3F)nc2-c2ccc3ncnn3c2)n1 [Vactosertib] | 491 | > 500 | 493 | 481 | 419 | 394 | 481 | > 500 | > 500 | > 500 | 496 |
| COc1cccc2c1C(=O)c1c(O)c3c(c(O)c1C2=O)C[C@@](O)(C(C)=O)C[C@@H]3O[C@H]1C[C@H](N)[C@H](O)[C@H](C)O1 [Daunorubicin] | 400 | 287 | 301 | 317 | 273 | 247 | 283 | 253 | 305 | 301 | 284 |
| Nc1cc(C(F)(F)F)c(-c2cc(N3CCOCC3)nc(N3CCOCC3)n2)cn1 [Buparlisib] | 447 | 416 | 413 | 425 | 383 | 385 | 440 | 413 | 436 | 454 | 449 |
| CC[C@H](Nc1nc(NCc2cnc(C)cc2C)c2ncn(C(C)C)c2n1)[C@@H](C)O [CYC065] | 377 | 381 | 400 | 419 | 382 | 325 | 387 | 328 | 347 | 366 | 333 |
| CC[C@@]1(O)C(=O)OCc2c1cc1n(c2=O)Cc2cc3c(CN(C)C)c(O)ccc3nc2-1 [Topotecan] | 372 | 269 | 328 | 416 | 257 | 311 | 291 | 239 | 348 | 319 | 284 |
| Cc1cc(C)cc(C(=O)NOCCCCCC(=O)NO)c1 [LMK-235] | 428 | 365 | 404 | 413 | 407 | 395 | 378 | 379 | 411 | 418 | 426 |

Source: the supplement of paper PMC11579375
